Molecules are shown by their SMILES. Values joined by “and” are separate entries in the source; they are usually repeats but may differ in a detail not shown here. Equal values may be shown once.

The target of the assay is D(3) dopamine receptor (Rattus norvegicus, UniProt P19020).
Sequence of D(3) dopamine receptor (P19020 whole entry): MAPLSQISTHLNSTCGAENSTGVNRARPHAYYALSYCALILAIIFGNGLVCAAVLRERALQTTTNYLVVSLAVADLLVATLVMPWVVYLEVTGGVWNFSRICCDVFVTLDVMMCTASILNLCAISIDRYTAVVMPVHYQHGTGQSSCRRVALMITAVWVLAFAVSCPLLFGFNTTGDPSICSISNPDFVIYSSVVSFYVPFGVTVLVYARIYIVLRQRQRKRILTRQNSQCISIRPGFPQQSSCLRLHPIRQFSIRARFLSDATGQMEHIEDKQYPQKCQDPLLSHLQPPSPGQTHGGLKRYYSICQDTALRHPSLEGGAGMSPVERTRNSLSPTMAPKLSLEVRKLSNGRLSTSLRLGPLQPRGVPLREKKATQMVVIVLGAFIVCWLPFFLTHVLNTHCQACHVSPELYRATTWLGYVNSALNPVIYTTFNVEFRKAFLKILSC

As a reminder, the Ki is the equilibrium dissociation constant of an inhibitor or competing ligand from its target. A higher Ki goes with lower affinity. Consider `CCc1cc(Cl)c(OC)c(C(=O)NC[C@@H]2CCCN2CC)c1O` [3-Chloro-5-ethyl-N-((S)-1-ethyl-pyrrolidin-2-ylmethyl)-6-hydroxy-2-methoxy-benzamide], for which the inhibition constant (Ki) was 0.00016 µM and 0.00046 µM. Next, `Nc1nc2c(ncn2[C@@H]2O[C@H](COP(=O)(O)OP(=O)(O)NP(=O)(O)O)[C@@H](O)[C@H]2O)c(=O)[nH]1` [Guanylyl imidodiphosphate]: 0.264 µM and 0.617 µM.

The values above are taken from BindingDB's records for PubMed 8301592 (Washington University, 1994).
